Where two headings read alike, the source gives them in different places. Where only a bound is given, the exact number is not on record here.

The term EC50 denotes the concentration needed to bring the measured effect to its halfway point.

One assay has as its system DENV-3. As to the kind of experiment: Viral yield assay against DENV-3 in Vero cells. Type of assay: cell-based. The conditions noted are these: Dengue virus. As for the experimental part:
(§1) Compounds that were active in the primary screen were tested for activity in viral yield assays. […] Vero cells in 12-well plates were infected with dengue-2 virus at a multiplicity of infection (MOI) of 0.1, treated with compound (or DMSO as a control), incubated at 37° C., harvested 48 hours post infection and titered on Vero cells as described above. The EC50 was calculated through ExcelFit. Activities against other serotypes of dengue virus were determined in a similar way.

Assay [1] has as its system Dengue-2 (Strain New Guinea C). The assay is described as follows: Viral yield assay against Dengue-2 in Vero cells. The assay is classed as cell-based, Dengue virus. The note with it: Dengue virus, read-out: Activity (EC50 in μM) DENV-2. The method in brief: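 Infect Vero cells with virus (MOI 0.1), add compound or DMSO, incubate at 37° C, collect progeny at 48 hours post infection, then titrate on Vero cells to obtain EC50.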

A further assay has as its system DENV-4. As to the kind of experiment: Viral yield assay against DENV-4 in Vero cells. Type of assay: cell-based. The note with it: Dengue virus. How it is done:
as §1

In another assay the test system is DENV-1. As to the kind of experiment: Viral yield assay against DENV-1 in Vero cells. The assay is classed as cell-based. The conditions noted are these: Dengue virus. As for the experimental part:
as §1

Where [2] appears, read: DENV2, viral yield assay, Vero cells, MOI 0.1, 48 hours post infection.

With `Cc1ccc2c(N)c(C(=O)Nc3nnc(-c4ccccc4)s3)sc2n1` [Compound 284, 3-amino-6-methyl-N-(5-phenyl-1,3,4-thiadiazol-2-yl)thieno[2,3-b]pyridine-2-carboxamide], the 50% effective concentration (EC50) was 5 to 25 µM in the assay with DENV-3 (DENV3, viral yield assay); under 5 µM in assay [1] (setting [2]); over 25 µM with DENV-4 (DENV4, viral yield assay); under 5 µM in the assay on DENV-1 (DENV1, viral yield assay).
Take `O=C(Nc1c(C(=O)Nc2nnc(-c3ccccc3)s2)sc2nc3c(cc12)CCCCC3)c1ccccc1` [Compound 285, 3-benzamido-N-(5-phenyl-1,3,4-thiadiazol-2-yl)-6,7,8,9-tetrahydro-5H-cyclohepta[b]thieno[3,2-e]pyridine-2-carboxamide]: the EC50 in the assay with DENV-3 (DENV3) is under 5 µM; in assay [1] (DENV2, Vero cells) it was under 5 µM; in the assay with DENV-4 (DENV4) it was under 5 µM; with DENV-1 (DENV1), under 5 µM.
`Cc1ccnc2sc(C(=O)Nc3nnc(-c4ccccc4)s3)c(N)c12` [Compound 288, 3-amino-4-methyl-N-(5-phenyl-1,3,4-thiadiazol-2-yl)thieno[2,3-b]pyridine-2-carboxamide]: the EC50 in the assay with DENV-3 (DENV3, viral yield assay) is 5 to 25 µM; in assay [1] (setting [2]), under 5 µM; in the assay on DENV-4 (DENV4, viral yield assay), under 5 µM; in the assay with DENV-1 (DENV1, viral yield assay) it was under 5 µM.
As to `CCCCNc1c(C(=O)Nc2nnc(-c3ccccc3)s2)sc2nc3c(cc12)CCCCC3` [Compound 289, 3-(butylamino)-N-(5-phenyl-1,3,4-thiadiazol-2-yl)-6,7,8,9-tetrahydro-5H-cyclohepta[b]thieno[3,2-e]pyridine-2-carboxamide], the EC50 with DENV-3 (DENV3) was under 5 µM; in assay [1] (DENV2, Vero cells), under 5 µM; in the assay on DENV-4 (DENV4) it was under 5 µM; in the assay on DENV-1 (DENV1), under 5 µM.
Turning to `Nc1c(C(=O)Nc2nnc(-c3ccccc3)s2)sc2nc(Cl)ccc12` [Compound 292], the EC50 is under 5 µM in the assay with DENV-3 (DENV3, viral yield assay); under 5 µM in assay [1] (setting [2]); under 5 µM in the assay with DENV-4 (DENV4, viral yield assay); under 5 µM in the assay on DENV-1 (DENV1, viral yield assay).
In the case of `O=C(O)CNc1c(C(=O)Nc2nnc(-c3ccccc3)s2)sc2nc3c(cc12)CCCCC3` [Compound 293, 2-((2-((5-phenyl-1,3,4-thiadiazol-2-yl)carbamoyl)-6,7,8,9-tetrahydro-5H-cyclohepta[b]thieno[3,2-e]pyridin-3-yl)amino)acetic acid], the EC50 is under 5 µM in the assay with DENV-3 (DENV3); under 5 µM in assay [1] (DENV2, Vero cells); under 5 µM in the assay with DENV-4 (DENV4); under 5 µM in the assay with DENV-1 (DENV1).
Consider `NCCNc1c(C(=O)Nc2nnc(-c3ccccc3)s2)sc2nc3c(cc12)CCCCC3` [Compound 294, 3-((2-aminoethyl)amino)-N-(5-phenyl-1,3,4-thiadiazol-2-yl)-6,7,8,9-tetrahydro-5H-cyclohepta[b]thieno[3,2-e]pyridine-2-carboxamide], for which the EC50 in the assay with DENV-3 (DENV3) was under 5 µM; in assay [1] (DENV2, Vero cells), under 5 µM; in the assay with DENV-4 (DENV4) it was under 5 µM; with DENV-1 (DENV1), under 5 µM.
As for `O=C(O)CC(=O)Nc1c(C(=O)Nc2nnc(-c3ccccc3)s2)sc2nc3c(cc12)CCCCC3` [Compound 295, 3-oxo-3-((2-((5-phenyl-1,3,4-thiadiazol-2-yl)carbamoyl)-6,7,8,9-tetrahydro-5H-cyclohepta[b]thieno[3,2-e]pyridin-3-yl)amino)propanoic acid], the EC50 with DENV-3 (DENV3) is under 5 µM; in assay [1] (DENV2, Vero cells), under 5 µM; in the assay on DENV-4 (DENV4), under 5 µM; in the assay on DENV-1 (DENV1) it was under 5 µM.
Turning to `NCC(=O)Nc1c(C(=O)Nc2nnc(-c3ccccc3)s2)sc2nc3c(cc12)CCCCC3` [Compound 296, 3-(2-aminoacetamido)-N-(5-phenyl-1,3,4-thiadiazol-2-yl)-6,7,8,9-tetrahydro-5H-cyclohepta[b]thieno[3,2-e]pyridine-2-carboxamide], the EC50 was under 5 µM in the assay with DENV-3 (DENV3); under 5 µM in assay [1] (DENV2, Vero cells); under 5 µM in the assay on DENV-4 (DENV4); under 5 µM in the assay on DENV-1 (DENV1).
For the compound `O=C(Nc1c(C(=O)Nc2nnc(-c3ccccc3)s2)sc2nc3c(cc12)CCCCC3)c1cccnc1` [Compound 297, 3-(nicotinamido)-N-(5-phenyl-1,3,4-thiadiazol-2-yl)-6,7,8,9-tetrahydro-5H-cyclohepta[b]thieno[3,2-e]pyridine-2-carboxamide], the EC50 in the assay with DENV-3 (DENV3) is under 5 µM; in assay [1] (DENV2, Vero cells), under 5 µM; with DENV-4 (DENV4), under 5 µM; in the assay on DENV-1 (DENV1) it was under 5 µM.
On to `O=C(Nc1c(C(=O)Nc2nnc(-c3ccccc3)s2)sc2nc3c(cc12)CCCCC3)c1ccncc1` [Compound 298, 3-(isonicotinamido)-N-(5-phenyl-1,3,4-thiadiazol-2-yl)-6,7,8,9-tetrahydro-5H-cyclohepta[b]thieno[3,2-e]pyridine-2-carboxamide], for which the EC50 is under 5 µM in the assay on DENV-3 (DENV3); under 5 µM in assay [1] (DENV2, Vero cells); under 5 µM with DENV-4 (DENV4); under 5 µM in the assay on DENV-1 (DENV1).
Regarding `O=C(O)CNc1c(C(=O)Nc2nnc(-c3ccccc3)s2)sc2nc(Cl)ccc12` [Compound 299, 2-[[6-chloro-2-[(5-phenyl-1,3,4-thiadiazol-2-yl)carbamoyl]thieno[2,3-b]pyridin-3-yl]amino]acetic acid], the EC50 lay within 5 to 25 µM in assay [1] (DENV2, Vero cells); 5 to 25 µM in the assay on DENV-4 (DENV4); 5 to 25 µM with DENV-1 (DENV1).
Regarding `NCCNc1c(C(=O)Nc2nnc(-c3ccccc3)s2)sc2nc(Cl)ccc12` [Compound 300, 3-(2-aminoethylamino)-6-chloro-N-(5-phenyl-1,3,4-thiadiazol-2-yl)thieno[2,3-b]pyridine-2-carboxamide], the EC50 in the assay with DENV-3 (DENV3) is under 5 µM; in assay [1] (DENV2, Vero cells) it was under 5 µM; with DENV-4 (DENV4), under 5 µM; in the assay with DENV-1 (DENV1), under 5 µM.
Take `CN1CCc2nc3sc(C(=O)Nc4nnc(-c5ccccc5)s4)c(N)c3cc2C1` [Compound 301, 3-amino-6-methyl-N-(5-phenyl-1,3,4-thiadiazol-2-yl)-7,8-dihydro-5H-thieno[2,3-b][1,6]naphthyridine-2-carboxamide]: the EC50 in the assay on DENV-3 (DENV3, viral yield assay) was 5 to 25 µM; in assay [1] (setting [2]), under 5 µM; in the assay with DENV-4 (DENV4, viral yield assay), under 5 µM; with DENV-1 (DENV1, viral yield assay), under 5 µM.
On to `O=C(O)CC(=O)Nc1c(C(=O)Nc2cccc(C(F)(F)F)c2)sc2nc(-c3cccs3)ccc12` [Compound 302, 3-oxo-3-[[6-(2-thienyl)-2-[[3-(trifluoromethyl)phenyl]carbamoyl]thieno[2,3-b]pyridin-3-yl]amino]propanoic acid], for which the EC50 with DENV-3 (DENV3) was 5 to 25 µM; in assay [1] (DENV2, Vero cells), under 5 µM; in the assay with DENV-4 (DENV4), under 5 µM; in the assay on DENV-1 (DENV1), under 5 µM.
For `CN1CCc2nc3sc(C(=O)Nc4ccc(OC(F)(F)F)cc4)c(NCC(=O)O)c3cc2C1` [Compound 303, 2-[[6-methyl-2-[[4-(trifluoromethoxy)phenyl]carbamoyl]-7,8-dihydro-5H-thieno[2,3-b][1,6]naphthyridin-3-yl]amino]acetic acid], the EC50 in the assay with DENV-3 (DENV3) is 5 to 25 µM; in assay [1] (DENV2, Vero cells) it was under 5 µM; with DENV-4 (DENV4), under 5 µM; in the assay on DENV-1 (DENV1), 5 to 25 µM.
Turning to `NCCNc1c(C(=O)Nc2cccc(C(F)(F)F)c2)sc2nc(-c3cccs3)ccc12` [Compound 304, 3-(2-aminoethylamino)-6-(2-thienyl)-N-[3-(trifluoromethyl)phenyl]thieno[2,3-b]pyridine-2-carboxamide], the EC50 was under 5 µM in the assay on DENV-3 (DENV3); under 5 µM in assay [1] (DENV2, Vero cells); under 5 µM in the assay on DENV-4 (DENV4); under 5 µM in the assay on DENV-1 (DENV1).
Take `O=C(O)CNc1c(C(=O)Nc2cccc(C(F)(F)F)c2)sc2nc(-c3cccs3)ccc12` [Compound 305, 2-[[6-(2-thienyl)-2-[[3-(trifluoromethyl)phenyl]carbamoyl]thieno[2,3-b]pyridin-3-yl]amino]acetic acid]: the EC50 was 5 to 25 µM with DENV-3 (DENV3); under 5 µM in assay [1] (DENV2, Vero cells); under 5 µM in the assay on DENV-4 (DENV4); under 5 µM in the assay with DENV-1 (DENV1).
In the case of `O=C1CCC(=O)N(c2cccc(C(F)(F)F)c2)C(=O)c2sc3nc(-c4cccs4)ccc3c2N1` [Compound 306, 2-(thiophen-2-yl)-10-(3-(trifluoromethyl)phenyl)-7,8-dihydro-5H-pyrido[3′,2′:4,5]thieno[3,2-b][1,5]diazonine-6,9,11(10H)-trione], the EC50 in the assay on DENV-3 (DENV3, viral yield assay) is under 5 µM; in assay [1] (setting [2]), under 5 µM; with DENV-4 (DENV4, viral yield assay), under 5 µM; in the assay on DENV-1 (DENV1, viral yield assay), under 5 µM.
Consider `COc1cccc(-c2ccc3c(N)c(C(=O)Nc4ccc(C)c(Br)c4)sc3n2)c1` [Compound 559, 3-amino-N-(3-bromo-4-methyl-phenyl)-6-(3-methoxyphenyl)thieno[2,3-b] pyridine-2-carboxamide], for which the EC50 was under 5 µM in the assay on DENV-3 (DENV3, viral yield assay); under 5 µM in assay [1] (setting [2]); under 5 µM with DENV-4 (DENV4, viral yield assay).
Turning to `COc1ccc(-c2ccc3c(N)c(C(=O)Nc4ccc(OC(F)(F)F)cc4)sc3n2)cc1OC` [Compound 584, 3-amino-6-(3,4-dimethoxyphenyl)-N-[4-(trifluoromethoxy)phenyl]thieno[2,3-b] pyridine-2-carboxamide], the EC50 in assay [1] (setting [2]) was under 5 µM; with DENV-4 (DENV4, viral yield assay), under 5 µM.
As to `Nc1c(C(=O)Nc2ccc(F)cc2)sc2nc(-c3ccc4c(c3)OCO4)ccc12` [Compound 603, 3-amino-6-(1,3-benzodioxol-5-yl)-N-(4-fluorophenyl)thieno[2,3-b]pyridine-2-carboxamide], the EC50 in assay [1] (DENV2, Vero, 48 h) is under 5 µM; in the assay with DENV-4 (DENV4, viral yield assay) it was under 5 µM.
Take `Nc1c(C(=O)Nc2ccc(F)cc2Cl)sc2nc(-c3ccc(F)cc3)ccc12` [Compound 618, 3-amino-N-(2-chloro-4-fluoro-phenyl)-6-(4-fluorophenyl)thieno[2,3-b]pyridine-2-carboxamide]: the EC50 is under 5 µM in assay [1] (setting [2]) and under 5 µM with DENV-1 (DENV1, viral yield assay).

Values taken from patent US20170121344A1 (Siga Technologies, Inc., priority 2009, published 2017).
